This note sets out measurements from patent US11691951B2 (Curtana Pharmaceuticals, Inc., priority 2015, dated 2023).

Counter-ions that a name gives are not always drawn.

For one assay, the system named is GBM8 cells (human glioblastoma neurosphere cell culture). The assay can be described thus: GBM8 viability assay (Cell Titer Glo luminescence, 3 days). The assay is classed as cell-based. The conditions noted are these: 72 h, 3 days incubation. A digest of the protocol: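 Patient-derived neurosphere cells (4000/well) in NeuroCult medium with rh EGF, rh bFGF and heparin, ultra-low attachment, dosed after overnight settling; 3 days at 37 °C. CellTiter-Glo luminescence versus DMSO controls gave % growth inhibition; IC50 from 4-parameter fit of serial dilutions.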
Usually IC50 stands for the concentration that gives 50% inhibition. A higher IC50 goes with weaker potency. As for `Cc1cc(NC2CCCNC2)nc(NC(=O)Nc2ccc(Cl)c(Cl)c2)n1` (racemic) [Compound 24, (±)-2-[3-(3,4-dichlorophenyl)ureido]-6-methyl-4-(3-piperidylamino)pyrimidine hydrochloride], the IC50 was < 1000 nM.
In turn, `CCN1CCCC(Nc2cc(C)nc(NC(=O)Nc3ccc(Cl)c(Cl)c3)n2)C1` (racemic) [Compound 30, (±)-2-[3-(3,4-dichlorophenyl)ureido]-4-(1-ethyl-piperidin-3-yl-amino)-6-methylpyrimidine] yielded an IC50 of 10000 to 30000 nM.
In turn, `CCN1CCCC(Nc2cc(C)nc(N3CCN(c4ccc(Cl)c(Cl)c4)C3=O)n2)C1` (racemic) [Compound 34, (±)-1-(3,4-dichlorophenyl)-3-[4-(1-ethyl-3-piperidylamino)-6-methyl-2-pyrimidinyl]-2-imidazolidinone] returned an IC50 of 1000 to 10000 nM.
With `Cc1cc(N2CCOCC2)nc(NC(=O)Nc2ccc(Cl)c(Cl)c2)n1` [Compound 4, 1-(3,4-dichlorophenyl)-3-(6-methyl-4-morpholino-2-pyrimidinyl) Urea], the IC50 is 1000 to 10000 nM.
The same measure, in the same setting: the figure for `CNCCN(C)c1cc(C)nc(NC(=O)Nc2ccc(Cl)c(Cl)c2)n1` [Compound 6, 1-(N-methyl{2-[3-(3,4-dichlorophenyl)ureido]-6-methyl-4-pyrimidinyl}amino)-2-(methylamino)ethane] is 1000 to 10000 nM.
Consider `Cc1cc(NCCCO)nc(NC(=O)Nc2ccc(Cl)c(Cl)c2)n1` [Compound 7, 3-{2-[3-(3,4-dichlorophenyl)ureido]-6-methyl-pyrimidin-4-yl}-aminopropanol], for which the 50% inhibitory concentration (IC50) was < 1000 nM.
With `Cc1cc(NCC2CCCNC2)nc(NC(=O)Nc2ccc(C)c(C)c2)n1` (stereo not drawn) [Compound 271], the IC50 is < 1000 nM.
Still for that read-out and setting: the figure for `CC(=O)NCCCNc1cc(C)nc(NC(=O)Nc2ccc(Cl)c(Cl)c2)n1` [Compound 272, N-(3-((2-(3-(3,4-dichlorophenyl)ureido)-6-methylpyrimidin-4-yl)amino)propyl)acetamide] is 1000 to 10000 nM; for `CC(=O)NCCCNc1cc(C)nc(NC(=O)Nc2ccc(OC(F)(F)F)cc2)n1` [Compound 273, N-(3-((6-methyl-2-(3-(4-(trifluoromethoxy)phenyl)ureido)pyrimidin-4-yl)amino)propyl)acetamide] it is < 1000 nM; for `CC(=O)NCCNc1cc(C)nc(NC(=O)Nc2ccc(OC(F)(F)F)cc2)n1` [Compound 274, N-(3-((6-methyl-2-(3-(4-(trifluoromethoxy)phenyl)ureido)pyrimidin-4-yl)amino)ethyl)acetamide] it is < 1000 nM.
In the case of `COc1ccc(NC(=O)Nc2nc(C)cc(NCCCNC(C)=O)n2)cc1` [Compound 275, N-(3-((2-(3-(4-methoxyphenyl)ureido)-6-methylpyrimidin-4-yl)amino)propyl)acetamide], the IC50 was < 1000 nM.
The same measure, in the same setting: the figure for `COc1ccc(NC(=O)Nc2nc(C)cc(NCCNC(C)=O)n2)cc1` [Compound 276, N-(2-((2-(3-(4-methoxyphenyl)ureido)-6-methylpyrimidin-4-yl)amino)ethyl)acetamide] is < 1000 nM.
On the same count and under the same terms, the figure for `CC(=O)NCCNc1cc(C)nc(NC(=O)Nc2cccc(C(F)(F)F)c2)n1` [Compound 277] is 1000 to 10000 nM; for `CC(=O)NCCCNc1cc(C)nc(NC(=O)Nc2ccc(F)c(Cl)c2)n1` [Compound 278] it is < 1000 nM.
Turning to `Cc1cc(NCCNS(C)(=O)=O)nc(NC(=O)Nc2ccc(OC(F)(F)F)cc2)n1` [Compound 279], the 50% inhibitory concentration (IC50) was < 1000 nM.
`Cc1cc(NCCCN(C)C)nc(NC(=O)Nc2ccc3c(c2)OCO3)n1` [Compound 281, 1-(benzo[d][1,3]dioxol-5-yl)-3-(4-((3-(dimethylamino)propyl)amino)-6-methylpyrimidin-2-yl)urea] registered a 50% inhibitory concentration (IC50) of 1000 to 10000 nM.
Same read-out and setting: the figure for `Cc1cc(NCCCN)nc(NC(=O)Nc2ccc3c(c2)OCO3)n1` [Compound 282] is < 1000 nM; for `Cc1cc(NCCN)nc(NC(=O)Nc2ccc3c(c2)OCO3)n1` [Compound 283] it is < 1000 nM; for `Cc1cc(NCCN(C)C)nc(NC(=O)Nc2ccc3c(c2)OCO3)n1` [Compound 284] it is 1000 to 10000 nM.
Still for that read-out and setting: the figure for `CCNc1cc(C)nc(NC(=O)Nc2ccc3c(c2)OCO3)n1` [Compound 285] is < 1000 nM.
With `CCCNc1cc(C)nc(NC(=O)Nc2ccc3c(c2)OCO3)n1` [Compound 286], the IC50 was < 1000 nM.
Turning to `CNCCNc1cc(C)nc(NC(=O)Nc2ccc3c(c2)OCO3)n1` [Compound 288, 1-(benzo[d][1,3]dioxol-5-yl)-3-(4-methyl-6-((2-(methylamino)ethyl)amino)pyrimidin-2-yl)urea], the IC50 is < 1000 nM.
With `CNCCCNc1cc(C)nc(NC(=O)Nc2ccc3c(c2)OCO3)n1` [Compound 289, 1-(benzo[d][1,3]dioxol-5-yl)-3-(4-methyl-6-((3-(methylamino)propyl)amino)pyrimidin-2-yl)urea], the IC50 lay within 1000 to 10000 nM.
In the case of `Cc1cc(NCCCN(C)C)nc(NC(=O)Nc2ccc3c(c2)OCCO3)n1` [Compound 291, 1-(2,3-dihydrobenzo[b][1,4]dioxin-6-yl)-3-(4-((3-(dimethylamino)propyl)amino)-6-methylpyrimidin-2-yl)urea], the 50% inhibitory concentration (IC50) was < 1000 nM.
Still for that read-out and setting: the figure for `Cc1cc(NCCCN)nc(NC(=O)Nc2ccc3c(c2)OCCO3)n1` [Compound 292] is < 1000 nM.
The compound `Cc1cc(NCCN)nc(NC(=O)Nc2ccc3c(c2)OCCO3)n1` [Compound 293] gave a concentration for half-maximal inhibition (IC50) of 1000 to 10000 nM.
As to `Cc1cc(NCCN(C)C)nc(NC(=O)Nc2ccc3c(c2)OCCO3)n1` [Compound 294], the IC50 was < 1000 nM.
On the same count and under the same terms, the figure for `CCNc1cc(C)nc(NC(=O)Nc2ccc3c(c2)OCCO3)n1` [Compound 295] is < 1000 nM; for `CCCNc1cc(C)nc(NC(=O)Nc2ccc3c(c2)OCCO3)n1` [Compound 296] it is < 1000 nM.
For the compound `CNCCNc1cc(C)nc(NC(=O)Nc2ccc3c(c2)OCCO3)n1` [Compound 298, 1-(2,3-dihydrobenzo[b][1,4]dioxin-6-yl)-3-(4-methyl-6-((2-(methylamino)ethyl)amino)pyrimidin-2-yl)urea], the IC50 is < 1000 nM.
Take `CNCCCNc1cc(C)nc(NC(=O)Nc2ccc3c(c2)OCCO3)n1` [Compound 299, 1-(2,3-dihydrobenzo[b][1,4]dioxin-6-yl)-3-(4-methyl-6-((3-(methylamino)propyl)amino)pyrimidin-2-yl)urea]: the half-maximal inhibitory concentration (IC50) lay in the range of 1000 to 10000 nM.
On the same count and under the same terms, the figure for `Cc1cc(NCCCN(C)C)nc(NC(=O)Nc2ccc(C(C)(C)C)cc2)n1` [Compound 301, 1-(4-(tert-butyl)phenyl)-3-(4-((3-(dimethylamino)propyl)amino)-6-methylpyrimidin-2-yl)urea] is < 1000 nM.
On the same count and under the same terms, the figure for `Cc1cc(NCCN(C)C)nc(NC(=O)Nc2ccc(C(C)(C)C)cc2)n1` [Compound 302] is 1000 to 10000 nM; for `Cc1cc(NCCCN)nc(NC(=O)Nc2ccc(C(C)(C)C)cc2)n1` [Compound 303] it is < 1000 nM.
Regarding `Cc1cc(NCCN)nc(NC(=O)Nc2ccc(C(C)(C)C)cc2)n1` [Compound 304], the IC50 is < 1000 nM.
Take `CC(=O)NCCCNc1cc(C)nc(NC(=O)Nc2ccc3c(c2)OCO3)n1` [Compound 305, N-(3-((2-(3-(benzo[d][1,3]dioxol-5-yl)ureido)-6-methylpyrimidin-4-yl)amino)propyl)acetamide]: the half-inhibitory concentration (IC50) is < 1000 nM.
The same measure, in the same setting: the figure for `CC(=O)NCCNc1cc(C)nc(NC(=O)Nc2ccc3c(c2)OCO3)n1` [Compound 306, N-{2-[2-(3-benzo[1,3]dioxol-5-yl-ureido)-6-methyl-pyrimidin-4-ylamino]-ethyl}-acetamide] is 1000 to 10000 nM; for `CC(=O)NCCNc1cc(C)nc(NC(=O)Nc2ccc3c(c2)OCCO3)n1` [Compound 307, N-(2-{2-[3-(2,3-dihydro-benzo[1,4]dioxin-6-yl)-ureido]-6-methyl-pyrimidin-4-ylamino}-ethyl)-acetamide] it is < 1000 nM.
The same measure, in the same setting: the figure for `CC(=O)NCCCNc1cc(C)nc(NC(=O)Nc2ccc3c(c2)OCCO3)n1` [Compound 308, N-(3-{2-[3-(2,3-dihydro-benzo[1,4]dioxin-6-yl)-ureido]-6-methyl-pyrimidin-4-ylamino}-propyl)-acetamide] is < 1000 nM.
Turning to `CC(=O)NCCNc1cc(C)nc(NC(=O)Nc2ccc(C(C)(C)C)cc2)n1` [Compound 309, N-(2-{2-[3-(4-tert-butyl-phenyl)-ureido]-6-methyl-pyrimidin-4-ylamino}-ethyl)-ace mid], the concentration for half-maximal inhibition (IC50) is < 1000 nM.
On the same count and under the same terms, the figure for `CC(=O)NCCCNc1cc(C)nc(NC(=O)Nc2ccc(C(C)(C)C)cc2)n1` [Compound 310, N-(3-{2-[3-(4-tert-butyl-phenyl)-ureido]-6-methyl-pyrimidin-4-ylamino}-propyl)-acetamide] is < 1000 nM.

A further assay deals with GBM4 cells (human glioblastoma neurosphere cell culture). The assay can be described thus: GBM4 viability assay (Cell Titer Glo luminescence, 3 days). The settings on record: 72 h, 3 days incubation. The assay is classed as cell-based. The method, then: Example 283: GBM4 and GBM8 Viability Assay
Cell culture medium was prepared from a NSA proliferation kit (Neurocult) and NeuroCult supplements (Stemcell Tech Cat. #05751) and treated with 20 μL of 10 μg/mL rh EGF, 10 μL of 10 μg/mL rh bFGF and 10 μL of 0.2% Heparin. In this medium, human glioblastoma cells were cultured in ultra-low attachment tissue culture flasks until 1×10^6 cells ml was achieved (GBM4 and GBM8 are distinct neurosphere cell cultures derived from these human patient tissues). GBM4 and GBM8 cells were dissociated and 10 mL of media containing 4000 human glioblastoma cells per 90 uL were transferred to an ultra-low binding 96-well plate and incubated at 37° C. overnight. On the following day, 10 μL of a 1% DMSO solution of test compound in assay medium was added to wells containing the cell suspension and the mixture incubated at 37° C. for 3 days. At this time, the plate was removed from the incubator and allowed to reach room temperature. After about 30 minutes, 50 μL of Cell Titer Glo solution was added to each well and the plate shaken for 1 minute at low speed. After 10 minutes luminescence was recorded using a Tecan Safire2 reader.
Reduction in luminescence compared to DMSO only control wells was used to determine the percentage inhibition of cell growth. IC50s were calculated using the % inhibition of luminescence for serial dilutions of compounds fitted to a 4-parameter fit within the Prism (San Diego) curve fitting program.
In general terms: In ATP-based viability assays light output follows the ATP content of the culture.
Regarding `Cc1cc(NC2CCCNC2)nc(NC(=O)Nc2ccc(Cl)c(Cl)c2)n1` (racemic) [Compound 24, (±)-2-[3-(3,4-dichlorophenyl)ureido]-6-methyl-4-(3-piperidylamino)pyrimidine hydrochloride], the IC50 was < 1 µM.
The same measure, in the same setting: the figure for `CCN1CCCC(Nc2cc(C)nc(NC(=O)Nc3ccc(Cl)c(Cl)c3)n2)C1` (racemic) [Compound 30, (±)-2-[3-(3,4-dichlorophenyl)ureido]-4-(1-ethyl-piperidin-3-yl-amino)-6-methylpyrimidine] is 10 to 30 µM.
`CCN1CCCC(Nc2cc(C)nc(N3CCN(c4ccc(Cl)c(Cl)c4)C3=O)n2)C1` (racemic) [Compound 34, (±)-1-(3,4-dichlorophenyl)-3-[4-(1-ethyl-3-piperidylamino)-6-methyl-2-pyrimidinyl]-2-imidazolidinone] came in with an IC50 of 10 to 30 µM.
Still for that read-out and setting: the figure for `Cc1cc(N2CCOCC2)nc(NC(=O)Nc2ccc(Cl)c(Cl)c2)n1` [Compound 4, 1-(3,4-dichlorophenyl)-3-(6-methyl-4-morpholino-2-pyrimidinyl) Urea] is 10 to 30 µM; for `Cc1cc(N2CCN(C)CC2)nc(NC(=O)Nc2ccc(Cl)c(Cl)c2)n1` [Compound 5, 1-(3,4-dichlorophenyl)-3-{6-methyl-4-(4-methyl-piperazin-1-yl-)pyrimidin-2-yl}-urea] it is 10 to 30 µM.
`CNCCN(C)c1cc(C)nc(NC(=O)Nc2ccc(Cl)c(Cl)c2)n1` [Compound 6, 1-(N-methyl{2-[3-(3,4-dichlorophenyl)ureido]-6-methyl-4-pyrimidinyl}amino)-2-(methylamino)ethane] displayed an IC50 of 1 to 10 µM.
For `Cc1cc(NCCCO)nc(NC(=O)Nc2ccc(Cl)c(Cl)c2)n1` [Compound 7, 3-{2-[3-(3,4-dichlorophenyl)ureido]-6-methyl-pyrimidin-4-yl}-aminopropanol], the IC50 is < 1 µM.
